For orientation: EC50 means the concentration that produces a half-maximal response. Read a low EC50 as a more potent agent. The ED50 is the dose at which the effect has come halfway, by size or by number of responders. By LD50 is commonly meant the dose expected to kill half of the subjects tested. Read a high LD50 as lower toxicity.

Results on ten molecules are retold here after patent publication US4176182A, “Sulfamoyl derivatives of 8-β-aminomethylergoline” (priority 1976, dated 1979).

Molecules are shown by their SMILES. Values after ≈ are worked out from the molar mass of the structure shown. Where two headings read alike, the source gives them in different places.

For series [1], the system named is 5-hydroxytryptamine (serotonin) induced contractions, uterus of female rat. The series can be described thus: inhibition of 5-hydroxytryptamine (serotonin)-induced contractions in uterus of female rat, in vitro. The class given is cell-based. Conditions: for EC50: 5-HT-induced contractions, rat treated with estradiol dipropionate 20 hours before; for times more active than the comparison compound as to the anti-5 HT activity: comparison compound methergoline. On the procedure:
(§1) These novel compounds show anti-serotonin activity both peripherally and on the central nervous system. This activity had been tested "in vitro" through the inhibition of the contractions as induced by 5-hydroxytryptamine (serotonin) (5 HT) in the uterus of a female rat, which 20 hours before the test had been treated with estradiol dipropionate (see Ersparmer, Archiv. int. Pharmacodyn. 93, 293, 1953), and "in vivo" on the clones induced by tryptamine (40 mg/kg i.v.) in the rat (S. J. Corne et al., Brit. J. Pharmacol., 20, 106, 1963).

Series [2] concerns ileus of guinea pig (BaCl2). As to the kind of experiment: spasmolytic activity, ileus of guinea pig, BaCl2, in vitro. Conditions: for EC50: Cavia porcellus, spasmolytic activity, in vitro, no quantity or unit printed in this column head; for times less active as regards the spasmolytic activity: vs comparison compound (papaverine as spasmolytic agent). The class given is cell-based.

Series [3] relates to seminal vesicle of guinea pig. The series can be described thus: adrenolytic activity, seminal vesicle of guinea pig, in vitro. The following applies: for EC50: Cavia porcellus, adrenolytic activity, in vitro; for times less active as regards the adrenolytic activity: vs comparison compound (dihydroergocristine as alpha-blocking agent). The class given is cell-based.
For series [4], the system named is clones induced by tryptamine. As to the kind of experiment: clones induced by tryptamine in the rat, in vivo. Conditions: sc, read-out: Clones induced by Tryptamine ED50. The procedure: as §1
Series [5] can be described thus: LD50 in the mouse, iv. The following applies: in vivo.

In the case of `CN1C[C@H](CNS(=O)(=O)N(C)C)C[C@@H]2c3cccc4[nH]cc(c34)C[C@H]21` [Compound 2], the figures for the 50% effective concentration (EC50) in series [1], in series [2] and in series [3] were 5 ng/mL (≈ 0.0138 µM), 10000 ng/mL (≈ 27.6 µM) and 1500 ng/mL (≈ 4.14 µM), respectively. Moreover, the ED50 in series [4] (rat, tryptamine 40 mg/kg i.v.) was determined as 10 mg/kg. The molecule further registered an LD50 in series [5] of 22.5 mg/kg.
With `CN1C[C@H](CNS(=O)(=O)N2CCCCC2)C=C2c3cccc4[nH]cc(c34)C[C@H]21` [Compound 5, 1-(6-methyl-8β-didehydroergolenylmethyl)-3-piperidino-sulfonamide], the EC50 in series [1] turned out to be 3 ng/mL (≈ 0.00749 µM); in series [2], 7500 ng/mL (≈ 18.7 µM); in series [3], 200 ng/mL (≈ 0.499 µM). The ED50 in series [4] (rat, tryptamine 40 mg/kg i.v.) was found to be 0.51 mg/kg. This molecule also registered a 50% lethal dose (LD50) in series [5] of 45 mg/kg.
Regarding `CN1C[C@H](CNS(=O)(=O)N2CCCCCC2)C=C2c3cccc4[nH]cc(c34)C[C@H]21` [Compound 7, 1-(1H-hexahydroazepine)-3-(6-methyl-8β-didehydroergolenyl-methyl)-sulfonamide], the EC50 came out at 7 ng/mL (≈ 0.0169 µM) in series [1], 5000 ng/mL (≈ 12.1 µM) in series [2] and 800 ng/mL (≈ 1.93 µM) in series [3]. The median effective dose (ED50) in series [4] (rat, tryptamine 40 mg/kg i.v.) stood at 2.47 mg/kg. Besides, in series [5], the 50% lethal dose (LD50) is 50.2 mg/kg.
As for `CN1C[C@H](CNS(=O)(=O)N2CCOCC2)C=C2c3cccc4[nH]cc(c34)C[C@H]21` [Compound 9, 1-(6-methyl-8β-didehydroergolenylmethyl)-3-morpholino-sulfonamide], the figures for the concentration for a half-maximal effect (EC50) in series [1], in series [2] and in series [3] were 5 ng/mL (≈ 0.0124 µM), 15000 ng/mL (≈ 37.3 µM) and 100 ng/mL (≈ 0.248 µM), respectively. Further, in series [4] (rat, tryptamine 40 mg/kg i.v.), the ED50 worked out at 4.25 mg/kg. Moreover, the LD50 in series [5] amounted to 34.5 mg/kg.
Consider `CN1C[C@H](CNS(=O)(=O)N2CCOCC2)C[C@@H]2c3cccc4[nH]cc(c34)C[C@H]21` [Compound 10], for which the EC50 in series [1] turned out to be 5 ng/mL (≈ 0.0124 µM); in series [2], 5000 ng/mL (≈ 12.4 µM); in series [3], 70 ng/mL (≈ 0.173 µM). Besides, the ED50 in series [4] (rat, tryptamine 40 mg/kg i.v.) worked out at 7.2 mg/kg. Also, in series [5], the LD50 was 51 mg/kg.
As for `CN1C[C@H](CNS(=O)(=O)N2CCCC2)C=C2c3cccc4c3c(cn4C)C[C@H]21` [Compound 11, 1-(1,6-dimethyl-8β-didehydroergolenylmethyl)-3-pyrrolidine-sulfonamide], in series [1], the EC50 came out at 0.2 ng/mL (≈ 0.000499 µM) and the “times more active than the comparison compound as to the anti-5 HT activity” value is 25 times. In series [2], the EC50 is 15000 ng/mL (≈ 37.4 µM) and the “times less active as regards the spasmolytic activity” value was determined as 2 times. In addition, in series [3], a half-maximal effect (EC50) was put at 1000 ng/mL (≈ 2.5 µM) and the “times less active as regards the adrenolytic activity” value turned out to be 25 times. In series [4] (rat, tryptamine 40 mg/kg i.v.), the ED50 was 0.016 mg/kg. This molecule also registered an LD50 in series [5] of 22.3 mg/kg.
Regarding `CN1C[C@H](CNS(=O)(=O)N2CCCCC2)C=C2c3cccc4c3c(cn4C)C[C@H]21` [Compound 12, 1-(1,6-dimethyl-8β-didehydroergolenylmethyl)-3-piperidino-sulfonamide], in series [1], the EC50 stood at 0.02 ng/mL (≈ 4.82e-05 µM) and the “times more active than the comparison compound as to the anti-5 HT activity” value was determined as 250 times. Also, in series [2], a half-maximal response (EC50) required 15000 ng/mL (≈ 36.2 µM) and the “times less active as regards the spasmolytic activity” value was found to be 2 times. In series [3], a half-maximal response (EC50) required 1000 ng/mL (≈ 2.41 µM) and the “times less active as regards the adrenolytic activity” value came to 25 times. Moreover, the ED50 in series [4] (rat, tryptamine 40 mg/kg i.v.) turned out to be 0.046 mg/kg. This molecule returned an LD50 in series [5] of 20 mg/kg.
In series [3], `CC(C)[C@@]1(NC(=O)[C@@H]2C[C@@H]3c4cccc5[nH]cc(c45)C[C@H]3N(C)C2)O[C@@]2(O)[C@@H]3CCCN3C(=O)[C@H](Cc3ccccc3)N2C1=O` [Dihydroergocristine methansulfonate, dihydroergocristine, reference compound] yielded an EC50 of 8 ng/mL. For the same molecule, the LD50 in series [5] turned out to be 70 mg/kg.
Turning to `CN1C[C@H](CNC(=O)OCc2ccccc2)C[C@@H]2c3cccc4c3c(cn4C)C[C@H]21` [Methergoline, methergoline, reference compound], in series [1], the 50% effective concentration (EC50) came to 5 ng/mL (≈ 0.0124 µM). Further, the median effective dose (ED50) in series [4] (Rattus norvegicus) turned out to be 0.062 mg/kg. The LD50 in series [5] is 21.2 mg/kg.
As to `COc1ccc(Cc2nccc3cc(OC)c(OC)cc23)cc1OC` [Papaverin, papaverine, reference compound], a half-maximal effect in series [2] (EC50) was put at 8900 ng/mL (≈ 26.2 µM). In series [5], this molecule returned a 50% lethal dose (LD50) of 38 mg/kg.
